Assay results: ChEMBL document CHEMBL1156898, “Synthesis, photophysical properties and photocytotoxicity of mono-, di-, tri- and tetra-glucosylated fluorophenylporphyrins” (Bioorg Med Chem, 2010)
Calls of active or inactive are those of the source. The calls are words filed in the database; no cut-off is given here.

What was measured:
HeLa [1] = test: Cytotoxicity against human HeLa cells assessed as cell survival in dark at 100 nM after 24 hrs by WST8 assay; type: functional, cell-based
HeLa [2] = test: Phototoxicity against human HeLa cells irradiated with 16Jcm'-2 from halogen lamp assessed as cell survival at 100 nM after 24 hrs by WST8 assay; type: functional, cell-based; conditions: light or radiation study
[3] = Lipophilicity, log P of the compound; type: physicochemical; conditions: octanol/water
HeLa [4] = test: Drug uptake in human HeLa cells at 80 nM after 24 hrs relative to TPPS; type: ADME, cell-based; conditions: 0.08 µM
HeLa [5] = test: Phototoxicity in human HeLa cells assessed as induction of cell shrinkage at 500 nM after 3 hrs using DAPI staining by confocal laser scanning microscopy; type: functional, cell-based
HeLa [6] = test: Phototoxicity in human HeLa cells assessed as induction of apoptotic bodies at 500 nM after 3 hrs using DAPI staining by confocal laser scanning microscopy; type: functional, cell-based

SMILES	Activity (HeLa [1])	% survival (HeLa [2]) [%]	logP [3]	Activity (HeLa [4])	Activity (HeLa [5])	Activity (HeLa [6])
OC[C@H]1O[C@@H](Sc2c(F)c(F)c(-c3c4nc(c(-c5c(F)c(F)c(S[C@@H]6O[C@H](CO)[C@@H](O)[C@H](O)[C@H]6O)c(F)c5F)c5ccc([nH]5)c(-c5c(F)c(F)c(F)c(F)c5F)c5nc(c(-c6c(F)c(F)c(F)c(F)c6F)c6ccc3[nH]6)C=C5)C=C4)c(F)c2F)[C@H](O)[C@@H](O)[C@@H]1O	Not toxic	90	3.98	Active		
OC[C@H]1O[C@@H](Sc2c(F)c(F)c(-c3c4nc(c(-c5c(F)c(F)c(F)c(F)c5F)c5ccc([nH]5)c(-c5c(F)c(F)c(F)c(F)c5F)c5nc(c(-c6c(F)c(F)c(F)c(F)c6F)c6ccc3[nH]6)C=C5)C=C4)c(F)c2F)[C@H](O)[C@@H](O)[C@@H]1O	Not toxic	90	5.11	Active		
OC[C@H]1O[C@@H](Sc2c(F)c(F)c(-c3c4nc(c(-c5c(F)c(F)c(F)c(F)c5F)c5ccc([nH]5)c(-c5c(F)c(F)c(S[C@@H]6O[C@H](CO)[C@@H](O)[C@H](O)[C@H]6O)c(F)c5F)c5nc(c(-c6c(F)c(F)c(F)c(F)c6F)c6ccc3[nH]6)C=C5)C=C4)c(F)c2F)[C@H](O)[C@@H](O)[C@@H]1O	Not toxic	< 5	3.53	Active	Active	Active
OC[C@H]1O[C@@H](Sc2c(F)c(F)c(-c3c4nc(c(-c5c(F)c(F)c(S[C@@H]6O[C@H](CO)[C@@H](O)[C@H](O)[C@H]6O)c(F)c5F)c5ccc([nH]5)c(-c5c(F)c(F)c(S[C@@H]6O[C@H](CO)[C@@H](O)[C@H](O)[C@H]6O)c(F)c5F)c5nc(c(-c6c(F)c(F)c(F)c(F)c6F)c6ccc3[nH]6)C=C5)C=C4)c(F)c2F)[C@H](O)[C@@H](O)[C@@H]1O	Not toxic	80	2.99	Active		
OC[C@H]1O[C@@H](Sc2c(F)c(F)c(-c3c4nc(c(-c5c(F)c(F)c(S[C@@H]6O[C@H](CO)[C@@H](O)[C@H](O)[C@H]6O)c(F)c5F)c5ccc([nH]5)c(-c5c(F)c(F)c(S[C@@H]6O[C@H](CO)[C@@H](O)[C@H](O)[C@H]6O)c(F)c5F)c5nc(c(-c6c(F)c(F)c(S[C@@H]7O[C@H](CO)[C@@H](O)[C@H](O)[C@H]7O)c(F)c6F)c6ccc3[nH]6)C=C5)C=C4)c(F)c2F)[C@H](O)[C@@H](O)[C@@H]1O	Not toxic	90	0.75	Active		
